Results taken from US20240101540A1, “TARGETED PROTEIN DEGRADATION OF PARP14 FOR USE IN THERAPY” (Ribon Therapeutics, Inc., priority 2022, published 2024).
Where a name gives a salt, the structure may show the parent alone.

Key:
[1] = target: T1, catalytic domain of human PARP14 (residues 1611 to 1801) with NanoLuc tag (Homo sapiens, UniProt Q460N5); assay: NanoLuc assay for the degradation of PARP14 (NanoLuc-tagged PARP14 overexpressed in HEK-293T cells, 2 hours); format: cell-based; conditions: Assay A (Example A): NanoLuc-tagged PARP14 degradation in HEK-293T cells, read-out: DC50
T1 construct: expressed in transfected cells; host or cells: HEK-293T cells (ATCC), pcDNA3.1(-) vector
T1 sequence (Q460N5 1611-1801): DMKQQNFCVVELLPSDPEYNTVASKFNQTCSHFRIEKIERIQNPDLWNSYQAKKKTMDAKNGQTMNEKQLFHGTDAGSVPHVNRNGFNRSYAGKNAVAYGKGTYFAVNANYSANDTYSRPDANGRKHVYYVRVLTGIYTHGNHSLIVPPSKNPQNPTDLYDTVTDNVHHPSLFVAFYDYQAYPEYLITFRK
Procedure: The insert also contained a NanoLuc tag on the N terminus of the PARP14 protein.
Degradation of PARP14 protein was assessed using measurement of the NanoLuc tag as proxy for the PARP14 protein. […] Plasmid DNA was diluted in empty vector DNA then added to 1.163 mL of phenol red free OptiMEM (Thermo Fisher). Plasmid DNA concentrations used in each assay described in Table 1. The plasmid DNA was mixed with 78.5 μL of Fugene HD (Promega) and allowed to incubate 5 minutes.
The transfection was incubated for 24 hrs at 37 degrees in an incubator supplemented with 5% CO2. The cells were then trypsinized and brought up in phenol red free OptiMEM media. […] 40 nL of a dose response curve diluted in DMSO of each test compound was added to the cell plate using a Mosquito (TTP Labtech) and the plate was incubated at 37° C. for 2 hours. Assay plate was brought to room temperature then 20 μL per well of NanoGlo (Promega) was added to the plate. Luminescence was measured on an Envision (Perkin Elmer).
The average DMSO was calculated from 32 wells containing 0.1% DMSO only in columns 12 and 24 of the assay plate. The % of DMSO values were calculated as described below: […]
The % of DMSO values were plotted as a function of compound concentration and the following 4-parameter fit was applied to derive the DC50 values:
where top, bottom, and Hill Coefficient are allowed to float. Y is the % of DMSO and X is the compound concentration
DC50 data for the Example compounds is provided below in Table 2 (“+” is <0.1 μM; “++” is ≥0.1 μM and <1 μM; and “+++” is ≥1 μM).

HiBiT tagged PARP14 = target: T2, HiBiT tagged PARP14 (Homo sapiens, UniProt Q460N5); assay: HiBiT assay for the degradation of PARP14 (HiBiT tagged PARP14 in LgBiT expressing Jurkat cells, 2 or 24 hours); format: cell-based; conditions: Assay B (Example B): HiBiT tagged PARP14 degradation in LgBiT expressing Jurkat cells, read-out: DC50
T2 construct: engineered to contain a HiBiT tag on both alleles of the PARP14 gene; endogenous in cells; host or cells: Jurkat cells stably transfected with LgBiT (Promega), PARP14 locus edited by CRISPR/Cas9
T2 sequence (Q460N5 whole entry): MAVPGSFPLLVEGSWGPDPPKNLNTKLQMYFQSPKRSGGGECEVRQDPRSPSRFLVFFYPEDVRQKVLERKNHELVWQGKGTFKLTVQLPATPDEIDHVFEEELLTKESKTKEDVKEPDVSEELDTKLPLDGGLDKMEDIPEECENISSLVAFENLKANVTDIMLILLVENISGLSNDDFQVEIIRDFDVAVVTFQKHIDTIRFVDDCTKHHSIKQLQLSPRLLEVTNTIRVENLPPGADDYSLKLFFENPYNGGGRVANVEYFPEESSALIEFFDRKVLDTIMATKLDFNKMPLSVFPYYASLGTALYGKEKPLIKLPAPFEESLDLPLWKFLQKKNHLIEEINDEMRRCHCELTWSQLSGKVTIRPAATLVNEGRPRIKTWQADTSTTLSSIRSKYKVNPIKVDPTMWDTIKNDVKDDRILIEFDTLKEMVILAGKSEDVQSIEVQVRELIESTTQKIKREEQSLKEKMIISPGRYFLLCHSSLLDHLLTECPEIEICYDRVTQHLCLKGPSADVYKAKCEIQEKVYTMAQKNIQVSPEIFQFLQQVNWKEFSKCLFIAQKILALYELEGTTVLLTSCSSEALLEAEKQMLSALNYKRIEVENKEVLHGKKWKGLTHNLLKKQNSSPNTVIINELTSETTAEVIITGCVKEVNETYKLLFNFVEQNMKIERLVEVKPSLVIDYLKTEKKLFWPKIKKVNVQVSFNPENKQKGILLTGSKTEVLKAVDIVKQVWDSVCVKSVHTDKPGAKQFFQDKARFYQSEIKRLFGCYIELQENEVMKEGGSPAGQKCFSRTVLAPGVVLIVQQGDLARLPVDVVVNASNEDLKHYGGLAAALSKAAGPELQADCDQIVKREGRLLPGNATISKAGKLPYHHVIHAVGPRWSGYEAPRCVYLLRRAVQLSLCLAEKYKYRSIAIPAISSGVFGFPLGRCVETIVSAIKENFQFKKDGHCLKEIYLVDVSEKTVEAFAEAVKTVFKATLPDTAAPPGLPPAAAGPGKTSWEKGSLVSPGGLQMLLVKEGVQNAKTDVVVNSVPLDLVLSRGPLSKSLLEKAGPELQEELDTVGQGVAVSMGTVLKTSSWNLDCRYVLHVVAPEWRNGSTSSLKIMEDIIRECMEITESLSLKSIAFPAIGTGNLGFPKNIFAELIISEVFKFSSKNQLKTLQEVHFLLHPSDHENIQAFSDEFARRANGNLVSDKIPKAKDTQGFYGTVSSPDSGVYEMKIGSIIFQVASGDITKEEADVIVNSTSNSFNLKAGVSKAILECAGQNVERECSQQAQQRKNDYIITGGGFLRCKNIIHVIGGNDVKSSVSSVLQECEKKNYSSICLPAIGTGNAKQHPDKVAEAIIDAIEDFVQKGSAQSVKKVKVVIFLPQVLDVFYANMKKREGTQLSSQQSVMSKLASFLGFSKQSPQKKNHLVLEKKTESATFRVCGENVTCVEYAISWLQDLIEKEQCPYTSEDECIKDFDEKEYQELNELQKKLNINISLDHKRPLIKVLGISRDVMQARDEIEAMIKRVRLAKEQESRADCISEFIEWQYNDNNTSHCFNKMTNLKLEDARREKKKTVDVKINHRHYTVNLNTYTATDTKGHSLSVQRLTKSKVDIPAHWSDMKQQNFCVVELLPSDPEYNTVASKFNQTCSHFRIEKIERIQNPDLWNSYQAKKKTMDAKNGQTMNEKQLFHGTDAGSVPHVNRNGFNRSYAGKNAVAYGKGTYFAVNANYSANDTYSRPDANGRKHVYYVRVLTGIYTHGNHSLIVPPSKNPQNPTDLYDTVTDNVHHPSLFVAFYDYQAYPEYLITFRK
In short: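 Luminescence from HiBiT–LgBiT complementation served as proxy for endogenous PARP14 level in edited LgBiT Jurkat cells (5,000/well). After 2 or 24 h compound exposure at 37 °C, signal read with Live Cell Substrate, expressed as % of 0.1% DMSO control, and fitted (4-parameter, free Hill) for DC50.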

Structure (SMILES) | DC50 [1] | DC50 (HiBiT tagged PARP14)
O=C1CC[C@H](Nc2ccc(N3CCN(CCN4CCC(COc5cc(F)c6c(=O)[nH]c(CSC7CCOCC7)nc6c5)CC4)CC3)cc2)C(=O)N1 (single isomer, unassigned) [Example 48a] | < 100 nM | 
O=C1CC[C@@H](Nc2ccc(N3CCN(CCN4CCC(COc5cc(F)c6c(=O)[nH]c(CSC7CCOCC7)nc6c5)CC4)CC3)cc2)C(=O)N1 (single isomer, unassigned) [Example 48b] | < 100 nM | 
O=C1CCC(N2C(=O)c3cccc(OC4CC(CN5CCC(COc6cc(F)c7c(=O)[nH]c(CSC8CCOCC8)nc7c6)CC5)C4)c3C2=O)C(=O)N1 (single isomer, unassigned) [Example 80a, 2-(2,6-dioxopiperidin-3-yl)-4-((1r,3r)-3-((4-(((5-fluoro-4-oxo-2-(((tetrahydro-2H-pyran-4-yl)thio)methyl)-3,4-dihydroquinazolin-7-yl)oxy)methyl)piperidin-1-yl)methyl)cyclobutoxy)isoindoline-1,3-dione] | < 100 nM | 
O=C1CCC(N2C(=O)c3cccc(OC4CC(CN5CCC(COc6cc(F)c7c(=O)[nH]c(CSC8CCOCC8)nc7c6)CC5)C4)c3C2=O)C(=O)N1 (single isomer, unassigned) [Example 80b, 2-(2,6-dioxopiperidin-3-yl)-4-((1s,3s)-3-((4-(((5-fluoro-4-oxo-2-(((tetrahydro-2H-pyran-4-yl)thio)methyl)-3,4-dihydroquinazolin-7-yl)oxy)methyl)piperidin-1-yl)methyl)cyclobutoxy)isoindoline-1,3-dione] | < 100 nM | 
O=C(CN1CCC(COc2cc(F)c3c(=O)[nH]c(CSC4CCOCC4)nc3c2)CC1)NCCCCCCNc1cccc2c1C(=O)N(C1CCC(=O)NC1=O)C2=O (centres unmarked) [Example 1, N-(6-((2-(2,6-dioxopiperidin-3-yl)-1,3-dioxoisoindolin-4-yl)amino)hexyl)-2-(4-(((5-fluoro-4-oxo-2-(((tetrahydro-2H-pyran-4-yl)thio)methyl)-3,4-dihydroquinazolin-7-yl)oxy)methyl)piperidin-1-yl)acetamide] | < 100 nM | 
O=C(CN1CCC(COc2cc(F)c3c(=O)[nH]c(CSC4CCOCC4)nc3c2)CC1)NCCNc1cccc2c1C(=O)N(C1CCC(=O)NC1=O)C2=O (centres unmarked) [Example 2, N-(2-((2-(2,6-dioxopiperidin-3-yl)-1,3-dioxoisoindolin-4-yl)amino)ethyl)-2-(4-(((5-fluoro-4-oxo-2-(((tetrahydro-2H-pyran-4-yl)thio)methyl)-3,4-dihydroquinazolin-7-yl)oxy)methyl)piperidin-1-yl)acetamide] | < 100 nM | 
O=C(CN1CCC(COc2cc(F)c3c(=O)[nH]c(CSC4CCOCC4)nc3c2)CC1)NCCCCCCCCNc1cccc2c1C(=O)N(C1CCC(=O)NC1=O)C2=O (centres unmarked) [Example 3, N-(8-((2-(2,6-dioxopiperidin-3-yl)-1,3-dioxoisoindolin-4-yl)amino)octyl)-2-(4-(((5-fluoro-4-oxo-2-(((tetrahydro-2H-pyran-4-yl)thio)methyl)-3,4-dihydroquinazolin-7-yl)oxy)methyl)piperidin-1-yl)acetamide] | < 100 nM | 
O=C1CCC(N2C(=O)c3cccc(NCCOCCOCCC(=O)N4CCC(COc5cc(F)c6c(=O)[nH]c(CSC7CCOCC7)nc6c5)CC4)c3C2=O)C(=O)N1 (centres unmarked) [Example 4, 2-(2,6-dioxopiperidin-3-yl)-4-((2-(2-(3-(4-(((5-fluoro-4-oxo-2-(((tetrahydro-2H-pyran-4-yl)thio)methyl)-3,4-dihydroquinazolin-7-yl)oxy)methyl)piperidin-1-yl)-3-oxopropoxy)ethoxy)ethyl)amino)isoindoline-1,3-dione] | < 100 nM | 
O=C1CCC(N2C(=O)c3cccc(NCCC(=O)N4CCC(COc5cc(F)c6c(=O)[nH]c(CSC7CCOCC7)nc6c5)CC4)c3C2=O)C(=O)N1 (centres unmarked) [Example 5, 2-(2,6-dioxopiperidin-3-yl)-4-((3-(4-(((5-fluoro-4-oxo-2-(((tetrahydro-2H-pyran-4-yl)thio)methyl)-3,4-dihydroquinazolin-7-yl)oxy)methyl)piperidin-1-yl)-3-oxopropyl)amino)isoindoline-1,3-dione] | < 100 nM | 
O=C1CCC(N2C(=O)c3cccc(NCC(=O)N4CCC(COc5cc(F)c6c(=O)[nH]c(CSC7CCOCC7)nc6c5)CC4)c3C2=O)C(=O)N1 (centres unmarked) [Example 6, 2-(2,6-dioxopiperidin-3-yl)-4-((2-(4-(((5-fluoro-4-oxo-2-(((tetrahydro-2H-pyran-4-yl)thio)methyl)-3,4-dihydroquinazolin-7-yl)oxy)methyl)piperidin-1-yl)-2-oxoethyl)amino)isoindoline-1,3-dione] | < 100 nM | 
O=C(CN1CCC(COc2cc(F)c3c(=O)[nH]c(CSC4CCOCC4)nc3c2)CC1)NCCOCCOCCNc1cccc2c1C(=O)N(C1CCC(=O)NC1=O)C2=O (centres unmarked) [Example 7, N-(2-(2-(2-((2-(2,6-dioxopiperidin-3-yl)-1,3-dioxoisoindolin-4-yl)amino)ethoxy)ethoxy)ethyl)-2-(4-(((5-fluoro-4-oxo-2-(((tetrahydro-2H-pyran-4-yl)thio)methyl)-3,4-dihydroquinazolin-7-yl)oxy)methyl)piperidin-1-yl)acetamide] | < 100 nM | 
O=C(CN1CCC(COc2cc(F)c3c(=O)[nH]c(CSC4CCOCC4)nc3c2)CC1)NCCCCNc1cccc2c1C(=O)N(C1CCC(=O)NC1=O)C2=O (centres unmarked) [Example 8, N-(4-((2-(2,6-dioxopiperidin-3-yl)-1,3-dioxoisoindolin-4-yl)amino)butyl)-2-(4-(((5-fluoro-4-oxo-2-(((tetrahydro-2H-pyran-4-yl)thio)methyl)-3,4-dihydroquinazolin-7-yl)oxy)methyl)piperidin-1-yl)acetamide] | < 100 nM | 
O=C1CCC(N2C(=O)c3cccc(NCCCCCCCCC(=O)N4CCC(COc5cc(F)c6c(=O)[nH]c(CSC7CCOCC7)nc6c5)CC4)c3C2=O)C(=O)N1 (centres unmarked) [Example 9, 2-(2,6-dioxopiperidin-3-yl)-4-((9-(4-(((5-fluoro-4-oxo-2-(((tetrahydro-2H-pyran-4-yl)thio)methyl)-3,4-dihydroquinazolin-7-yl)oxy)methyl)piperidin-1-yl)-9-oxononyl)amino)isoindoline-1,3-dione] | < 100 nM | 
O=C1CCC(N2C(=O)c3cccc(NCCCOCCC(=O)N4CCC(COc5cc(F)c6c(=O)[nH]c(CSC7CCOCC7)nc6c5)CC4)c3C2=O)C(=O)N1 (centres unmarked) [Example 10, 2-(2,6-dioxopiperidin-3-yl)-4-((3-(3-(4-(((5-fluoro-4-oxo-2-(((tetrahydro-2H-pyran-4-yl)thio)methyl)-3,4-dihydroquinazolin-7-yl)oxy)methyl)piperidin-1-yl)-3-oxopropoxy)propyl)amino)isoindoline-1,3-dione] | < 100 nM | 
O=C1CCC(N2C(=O)c3cccc(NCCCCCCC(=O)N4CCC(COc5cc(F)c6c(=O)[nH]c(CSC7CCOCC7)nc6c5)CC4)c3C2=O)C(=O)N1 (centres unmarked) [Example 11, 2-(2,6-dioxopiperidin-3-yl)-4-((7-(4-(((5-fluoro-4-oxo-2-(((tetrahydro-2H-pyran-4-yl)thio)methyl)-3,4-dihydroquinazolin-7-yl)oxy)methyl)piperidin-1-yl)-7-oxoheptyl)amino)isoindoline-1,3-dione] | < 100 nM | 
O=C1CCC(N2C(=O)c3cccc(NCCCCC(=O)N4CCC(COc5cc(F)c6c(=O)[nH]c(CSC7CCOCC7)nc6c5)CC4)c3C2=O)C(=O)N1 (centres unmarked) [Example 12, 2-(2,6-dioxopiperidin-3-yl)-4-((5-(4-(((5-fluoro-4-oxo-2-(((tetrahydro-2H-pyran-4-yl)thio)methyl)-3,4-dihydroquinazolin-7-yl)oxy)methyl)piperidin-1-yl)-5-oxopentyl)amino)isoindoline-1,3-dione] | < 100 nM | 
O=C1CCC(Nc2ccc(N3CCC(N4CC(N5CCC(COc6cc(F)c7c(=O)[nH]c(CSC8CCCCC8)nc7c6)CC5)C4)CC3)c(F)c2)C(=O)N1 (centres unmarked) [Example 237, 3-({4-[4-(3-{4-[({2-[(cyclohexylsulfanyl)methyl]-5-fluoro-4-oxo-3H-quinazolin-7-yl}oxy)methyl]piperidin-1-yl}azetidin-1-yl)piperidin-1-yl]-3-fluorophenyl}amino)piperidine-2,6-dione formate] |  | < 30 nM
